According to patent publication US20090074795A1, “Methods for addressing ocular diseases through interference with the wnt signaling pathway” (priority 2007, published 2009):

Columns and labels:
[1] = system: primary RCEC; assay: HIF-1 activation and VEGF expression induced by LiCl in primary RCEC; assay type: cell-based, bovine; settings: 50 mM LiCl, 24 hours
Experimental: Blockade of the wnt pathway by DKK1 down-regulates VEGF and HIF-1 expression and reduces vascular leakage in the retina of diabetic rats. To activate the wnt pathway, primary RCEC were treated with 50 mM LiCl, a specific activator of the wnt pathway, in the presence or absence of 85 ng/ml DKK1, a specific inhibitor of the wnt pathway, or BSA for 24 hours. Hypoxia was used as a positive control for HIF-1 activation. The HIF-1 nuclear translocation, a key step in its activation, was measured by immunocytochemistry. Both LiCl and hypoxia increased nuclear levels of HIF-1α, indicating an increased nuclear translocation.
According to embodiments of experimental data, RCEC were exposed to normoxia (FIG. 17A), hypoxia (1% O2) (FIG. 17B), 50 mM LiCl with BSA (FIG. 17C), or 50 mM LiCl plus 85 ng/ml DKK1 (FIG. 17D) for 24 hours. The nuclear translocation of HIF-1α was determined by immunocytochemistry with an antibody against HIF-1α. […] In FIG. 17E, the total levels of VEGF and HIF-1α were determined by western blot analysis with an antibody against HIF-1α or VEGF.

[2] = system: bovine retinal capillary endothelial cells (BRCEC); assay: β-catenin activation by high glucose in BRCEC; assay type: cell-based; settings: 30 mM glucose with 10 μM aminoguanidine, 24 h
Experimental: To elucidate the mechanism for of the wnt pathway activation induced by high glucose, primary bovine retinal capillary endothelial cells (BRCEC) were treated with low glucose (5 mM glucose and 20 mM mannitol), high glucose (30 mM glucose), and high glucose together with a known anti-oxidant (30 mM glucose with 10 μM aminoguanidine) for 24 h. The nuclear levels of β-catenin were examined by immunocytochemistry using the antibody for β-catenin. […] The nuclear translocation of β-catenin induced by high glucose was blocked by aminoguanidine.
According to embodiments of experimental data, cultured BRCEC were exposed to 5 mM glucose plus 20 mM mannitol as control (FIG. 12A), 30 mM glucose (FIG. 12B), and 30 mM glucose plus 10 μM aminoguanidine (AG) (FIG. 12C) for 24 hours. […] In FIG. 12D, protein levels of β-catenin were determined using western blot analysis, and normalized by β-actin levels. Each lane of FIG. 12D represents an individual culture dish.

Structure (SMILES) | nuclear levels of HIF-1α ([1]; immunocytochemistry) | expression of HIF-1α ([1]; western blot) | expression of VEGF ([1]; western blot) | nuclear translocation of β-catenin induced by high glucose ([2]; immunocytochemistry) | total levels of β-catenin increased by high glucose ([2]; western blot)
[Cl-].[Li+] [LiCl, reference compound] | increased | up-regulated | up-regulated | – | –
N=C(N)NN [aminoguanidine] | – | – | – | blocked | blocked
